ChEMBL document CHEMBL1201862, “PubChem BioAssay data set” (2004)
Blank lines part the entries; values can stand above or below the compound they belong to. Active and inactive are the calls of the source.

Assays:
Assay type in all cases: functional
[1] = system: T-cell; assay: inhibitors of CD8+ T cell–vesicle binding, dose response, mouse 2C CD8+ T cells, flow cytometry (AID 485284)
[2] = biological target: Mu-type opioid receptor (Homo sapiens, UniProt P35372); assay: SAR Analysis of Antagonists of the MOR Receptor using an Image-Based Assay - Set 3. [Related pubchem assays (depositor defined):AID1777, AID1785, AID1786, AID1966, AID2133, AID2136, AID2284, AID2285, AID2420]
Mu-type opioid receptor, sequence (P35372 whole entry): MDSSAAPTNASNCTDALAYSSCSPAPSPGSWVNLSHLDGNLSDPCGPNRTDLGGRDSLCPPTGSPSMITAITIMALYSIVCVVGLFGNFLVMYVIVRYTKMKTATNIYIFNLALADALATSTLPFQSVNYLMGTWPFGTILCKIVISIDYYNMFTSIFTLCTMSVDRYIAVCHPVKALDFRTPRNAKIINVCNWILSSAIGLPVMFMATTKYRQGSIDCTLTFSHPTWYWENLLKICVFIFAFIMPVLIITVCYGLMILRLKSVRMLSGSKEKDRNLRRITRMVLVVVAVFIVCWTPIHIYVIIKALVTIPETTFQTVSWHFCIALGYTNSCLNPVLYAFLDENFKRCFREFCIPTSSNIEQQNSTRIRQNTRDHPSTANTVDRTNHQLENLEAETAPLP

[3] = biological target: T1, Kappa-type opioid receptor (Homo sapiens, UniProt P41145); assay: SAR analysis of Antagonists of the Kappa Opioid Receptor (KOR) using an Image-Based Assay - Set 4. [Related pubchem assays (depositor defined):AID1777, AID1785]
T1 sequence (P41145 whole entry): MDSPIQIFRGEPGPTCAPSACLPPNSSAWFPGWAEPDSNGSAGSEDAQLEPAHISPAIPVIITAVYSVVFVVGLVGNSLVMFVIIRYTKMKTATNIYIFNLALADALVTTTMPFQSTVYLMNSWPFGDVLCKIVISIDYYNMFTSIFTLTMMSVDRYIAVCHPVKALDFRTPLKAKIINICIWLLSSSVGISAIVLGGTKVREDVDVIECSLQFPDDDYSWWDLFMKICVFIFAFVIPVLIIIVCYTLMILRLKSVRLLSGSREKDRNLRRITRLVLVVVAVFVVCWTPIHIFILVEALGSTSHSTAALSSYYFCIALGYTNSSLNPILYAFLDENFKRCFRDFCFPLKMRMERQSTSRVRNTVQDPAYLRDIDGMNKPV

[4] = biological target: Delta-type opioid receptor (Homo sapiens, UniProt P41143); assay: SAR Analysis of Antagonists of the DOR Receptor using an Image-Based Assay - Set 3. [Related pubchem assays (depositor defined):AID1777, AID1785];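 also: U2OS cells expressing DOR1 and beta-arrestin GFP stimulated with 100 nM SNC80; imaging of GFP-tagged beta-arrestin moving into spots after receptor activation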
Delta-type opioid receptor, sequence (P41143 whole entry): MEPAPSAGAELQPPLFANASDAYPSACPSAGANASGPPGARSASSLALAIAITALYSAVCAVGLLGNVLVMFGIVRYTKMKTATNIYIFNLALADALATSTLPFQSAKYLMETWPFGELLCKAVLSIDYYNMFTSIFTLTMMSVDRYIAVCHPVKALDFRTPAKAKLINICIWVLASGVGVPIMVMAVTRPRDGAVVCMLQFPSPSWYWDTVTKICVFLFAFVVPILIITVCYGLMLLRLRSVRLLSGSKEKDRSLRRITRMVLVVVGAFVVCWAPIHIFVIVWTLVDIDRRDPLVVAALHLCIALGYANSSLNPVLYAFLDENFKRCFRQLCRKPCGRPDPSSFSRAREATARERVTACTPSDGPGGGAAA

[5] = biological target: T1, Kappa-type opioid receptor; assay: SAR analysis of small molecule antagonists of the kappa opioid receptor via a luminescent beta-arrestin assay - Set 3. [Related pubchem assays (depositor defined):AID1777, AID1778, AID1785, AID1786, AID1966, AID2133, AID2136, AID2285, AID2495]
[6] = biological target: G-protein coupled receptor 55 (Homo sapiens, UniProt Q9Y2T6); assay: SAR Analysis of Selective Antagonists of GPR55 using an Image-Based Assay - Set 3. [Related pubchem assays (depositor defined):AID2058, AID2079]
G-protein coupled receptor 55, sequence (Q9Y2T6 whole entry): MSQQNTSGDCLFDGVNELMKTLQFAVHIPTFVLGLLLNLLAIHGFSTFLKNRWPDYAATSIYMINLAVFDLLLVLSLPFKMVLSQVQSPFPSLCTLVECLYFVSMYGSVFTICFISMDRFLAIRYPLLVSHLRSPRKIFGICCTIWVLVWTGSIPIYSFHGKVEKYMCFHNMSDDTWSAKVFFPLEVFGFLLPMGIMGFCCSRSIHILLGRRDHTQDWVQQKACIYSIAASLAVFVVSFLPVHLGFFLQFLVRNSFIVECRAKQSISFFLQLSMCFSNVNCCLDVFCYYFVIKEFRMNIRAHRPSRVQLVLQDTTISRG

[7] = biological target: G-protein coupled receptor 35 (Homo sapiens, UniProt Q9HC97); assay: SAR analysis of Antagonists of the GPR35 Receptor using an Image-Based Assay - Set 5. [Related pubchem assays (depositor defined):AID2058, AID2079]
G-protein coupled receptor 35, sequence (Q9HC97 whole entry): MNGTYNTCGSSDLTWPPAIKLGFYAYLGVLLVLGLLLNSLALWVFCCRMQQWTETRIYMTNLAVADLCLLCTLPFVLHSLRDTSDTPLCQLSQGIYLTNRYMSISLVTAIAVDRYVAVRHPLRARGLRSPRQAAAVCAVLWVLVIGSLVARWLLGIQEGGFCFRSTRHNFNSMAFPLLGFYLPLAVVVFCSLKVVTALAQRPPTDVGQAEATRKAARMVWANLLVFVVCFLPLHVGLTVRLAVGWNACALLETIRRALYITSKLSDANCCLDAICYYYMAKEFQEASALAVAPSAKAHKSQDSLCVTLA

[8] = biological target: Voltage-dependent T-type calcium channel subunit alpha-1H (Homo sapiens, UniProt O95180); assay: Cav3.2 T-type channel inhibitors, cell-based, synthetic library set 1, calcium flux (AID 493022)
Voltage-dependent T-type calcium channel subunit alpha-1H, sequence (O95180 whole entry): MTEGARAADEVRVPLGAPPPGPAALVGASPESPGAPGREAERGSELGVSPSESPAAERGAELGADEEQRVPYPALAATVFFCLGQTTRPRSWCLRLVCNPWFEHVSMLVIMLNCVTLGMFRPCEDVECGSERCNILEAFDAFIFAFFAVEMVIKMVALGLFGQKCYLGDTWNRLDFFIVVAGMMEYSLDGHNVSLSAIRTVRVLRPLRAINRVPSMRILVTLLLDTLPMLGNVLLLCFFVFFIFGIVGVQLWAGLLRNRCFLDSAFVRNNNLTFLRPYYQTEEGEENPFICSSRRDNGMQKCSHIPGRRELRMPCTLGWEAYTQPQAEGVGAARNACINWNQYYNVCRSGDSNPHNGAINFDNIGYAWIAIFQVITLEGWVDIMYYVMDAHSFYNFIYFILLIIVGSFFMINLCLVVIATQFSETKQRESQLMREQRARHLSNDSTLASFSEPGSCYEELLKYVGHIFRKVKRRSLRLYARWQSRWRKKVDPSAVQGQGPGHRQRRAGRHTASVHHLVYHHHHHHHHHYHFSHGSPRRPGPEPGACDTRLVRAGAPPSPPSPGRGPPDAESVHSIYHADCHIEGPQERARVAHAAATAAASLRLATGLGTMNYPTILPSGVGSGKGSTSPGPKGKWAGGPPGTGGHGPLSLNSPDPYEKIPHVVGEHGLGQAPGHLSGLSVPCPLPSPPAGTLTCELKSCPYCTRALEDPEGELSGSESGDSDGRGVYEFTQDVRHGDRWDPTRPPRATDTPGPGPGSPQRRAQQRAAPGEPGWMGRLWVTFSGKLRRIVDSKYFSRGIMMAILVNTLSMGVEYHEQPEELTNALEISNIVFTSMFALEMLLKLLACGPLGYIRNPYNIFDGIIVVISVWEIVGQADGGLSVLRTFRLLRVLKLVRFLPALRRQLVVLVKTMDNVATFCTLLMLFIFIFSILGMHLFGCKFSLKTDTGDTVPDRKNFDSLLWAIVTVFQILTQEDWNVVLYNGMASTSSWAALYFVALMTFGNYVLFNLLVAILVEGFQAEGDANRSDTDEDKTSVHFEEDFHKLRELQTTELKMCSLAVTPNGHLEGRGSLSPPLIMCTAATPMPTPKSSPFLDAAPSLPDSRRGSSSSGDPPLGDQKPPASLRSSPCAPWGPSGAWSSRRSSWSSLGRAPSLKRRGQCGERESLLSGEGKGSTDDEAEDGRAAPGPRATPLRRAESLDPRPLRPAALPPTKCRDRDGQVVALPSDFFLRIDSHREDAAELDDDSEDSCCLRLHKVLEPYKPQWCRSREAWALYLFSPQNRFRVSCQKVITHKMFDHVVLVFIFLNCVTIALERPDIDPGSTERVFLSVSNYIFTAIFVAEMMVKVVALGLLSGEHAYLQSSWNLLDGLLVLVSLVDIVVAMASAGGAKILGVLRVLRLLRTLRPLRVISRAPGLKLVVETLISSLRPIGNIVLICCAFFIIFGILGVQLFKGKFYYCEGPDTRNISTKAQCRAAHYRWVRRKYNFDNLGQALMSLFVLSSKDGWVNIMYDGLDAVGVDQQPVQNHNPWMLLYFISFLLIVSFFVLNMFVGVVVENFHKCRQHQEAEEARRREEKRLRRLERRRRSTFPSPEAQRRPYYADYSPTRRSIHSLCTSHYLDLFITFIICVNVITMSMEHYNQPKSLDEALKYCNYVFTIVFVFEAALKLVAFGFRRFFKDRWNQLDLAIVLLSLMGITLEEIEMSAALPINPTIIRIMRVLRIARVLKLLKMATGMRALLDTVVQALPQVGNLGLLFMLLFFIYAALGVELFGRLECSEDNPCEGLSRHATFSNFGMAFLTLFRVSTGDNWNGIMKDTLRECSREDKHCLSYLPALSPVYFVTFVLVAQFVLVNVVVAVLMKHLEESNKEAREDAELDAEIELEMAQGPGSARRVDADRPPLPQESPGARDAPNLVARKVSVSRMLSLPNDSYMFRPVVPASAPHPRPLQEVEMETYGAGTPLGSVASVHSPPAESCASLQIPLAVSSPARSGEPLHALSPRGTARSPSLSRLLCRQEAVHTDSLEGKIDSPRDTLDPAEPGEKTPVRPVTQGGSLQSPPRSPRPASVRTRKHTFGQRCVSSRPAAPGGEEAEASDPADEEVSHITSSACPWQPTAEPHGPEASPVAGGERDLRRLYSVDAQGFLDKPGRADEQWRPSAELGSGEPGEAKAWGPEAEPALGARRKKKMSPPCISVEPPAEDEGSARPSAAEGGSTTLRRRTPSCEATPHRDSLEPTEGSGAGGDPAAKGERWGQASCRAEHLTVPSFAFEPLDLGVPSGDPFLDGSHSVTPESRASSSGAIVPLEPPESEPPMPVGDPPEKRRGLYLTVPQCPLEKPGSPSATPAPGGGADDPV

[9] = biological target: Hexokinase (Trypanosoma brucei, UniProt Q38C41); assay: Confirmation assay for inhibitors of Trypanosoma brucei hexokinase 1-Analogue-first series. [Related pubchem assays (depositor defined):AID1430, AID1632, AID2516, AID2560, AID2579, AID2600, AID449725, AID492951]
Hexokinase, sequence (Q38C41 whole entry): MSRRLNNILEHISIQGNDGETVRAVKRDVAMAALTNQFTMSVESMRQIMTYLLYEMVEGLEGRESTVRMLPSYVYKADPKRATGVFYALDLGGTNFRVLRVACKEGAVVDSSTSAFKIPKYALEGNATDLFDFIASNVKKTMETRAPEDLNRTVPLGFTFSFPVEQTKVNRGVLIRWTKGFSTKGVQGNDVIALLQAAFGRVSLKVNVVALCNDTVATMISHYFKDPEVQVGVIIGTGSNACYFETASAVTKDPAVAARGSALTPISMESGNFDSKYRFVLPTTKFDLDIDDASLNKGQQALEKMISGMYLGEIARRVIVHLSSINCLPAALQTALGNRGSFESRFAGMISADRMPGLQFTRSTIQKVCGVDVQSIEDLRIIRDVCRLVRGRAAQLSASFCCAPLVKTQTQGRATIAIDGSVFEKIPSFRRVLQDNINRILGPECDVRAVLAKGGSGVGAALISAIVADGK

SMILES: COc1ccc(S(=O)(=O)N2CCCCC2)cc1NC(=O)c1cnc(C)cn1
EC50 [1]: 0.558 µM (active)

SMILES: Cc1ccnc2c1n1cccc1c(=O)n2CC(=O)NCCCN1CCN(c2ccccc2)CC1
IC50 [2]: 22.5 µM (inactive)
IC50 [3]: 2.56 µM (active)
IC50 [4]: > 32 µM (inactive)
IC50 [5]: 4.95 µM (active)

SMILES: O=C(Nc1cc(Cl)ccc1C(=O)O)c1ccsc1
IC50 [9]: > 25 µM (inactive)

Results, then the compound that gave them:

IC50 [6]: > 32 µM (inactive)
IC50 [7]: 0.379 µM (active)
SMILES: COC(=O)c1cnn(-c2ccc(F)cc2F)c1/C=N/NC(=S)Nc1ccccc1

EC50 [8]: 1.3 µM (active)
SMILES: CC(Oc1ccccc1)C(=O)Nc1nnc(-c2ccc3c(c2)CCCC3)o1 (centres undefined)
